# Patent US20250019382A1, “NOVEL INHIBITORS OF CYCLIN-DEPENDENT KINASES” (Origenis Gmbh, priority 2021, published 2025)
# pIC50: −log10 of the molar value.
# Columns and labels:
# CDK2/cyclin E1 = target: T1, CDK2/cyclin E1 (Homo sapiens, UniProt P24941); test: CDK2/cyclin E1 LanthaScreen (SelectScreen); type: binding; details: duplicate, averaged
# T1 construct: purchased Invitrogen Ltd., Paisley, UK (SelectScreen service)
# Description: (§1) The CDK2 inhibitory activity of the compounds of the invention was measured in combination with different […] and assay systems. The SelectScreen™ assessment of the kinase inhibitory activity of CDK2 data point was performed in duplicate and averaged data is reported here. The SelectScreen™ kinase inhibitor assay service was used (Invitrogen Ltd., Paisley, UK) to investigate the ability of the compounds of the invention to inhibit CDK2 in dose dependent manner using ten inhibitor concentrations from 10 micromolar down to […] in half-logarithmic steps. The inhibitor concentration was plotted against the percent inhibition or displacement to determine the IC50 using XLFit 5.5 (IDBS, Guildford) to fit to a sigmoidal dose response curve with a variable slope.
# CDK2/cyclin A = target: T2, CDK2/cyclin A (Homo sapiens, UniProt P24941); test: CDK2/cyclin A Z'-LYTE (SelectScreen); type: biochemical; details: duplicate, averaged
# T2 construct: purchased Invitrogen Ltd., Paisley, UK (SelectScreen service)
# Description: as §1
# CDK2/cyclin A1 [1] = target: T3, CDK2/cyclin A1 (Homo sapiens, UniProt P24941); test: CDK2/cyclin A1 LanthaScreen (SelectScreen), second list; type: binding; details: second list under the same heading; duplicate, averaged
# T3 construct: purchased Invitrogen Ltd., Paisley, UK (SelectScreen service)
# Description: as §1
# CDK2/cyclin A1 [2] = target: T3, CDK2/cyclin A1; test: CDK2/cyclin A1 LanthaScreen (SelectScreen); type: binding; details: first list; duplicate, averaged
# Description: as §1
# CDK9/CyclinT1 = target: T4, CDK9/CyclinT1 (Homo sapiens, UniProt P50750); test: CDK9/T1 ADPGlo kinase assay; type: biochemical; details: CDK9/CyclinT1 6 nM, ATP 10 microM, PDKtide 40 microM, 120 min RT
# T4 construct: purchased ProQinase/Reaction Biology, USA #0371-0345-1
# T4 sequence (P50750 whole entry): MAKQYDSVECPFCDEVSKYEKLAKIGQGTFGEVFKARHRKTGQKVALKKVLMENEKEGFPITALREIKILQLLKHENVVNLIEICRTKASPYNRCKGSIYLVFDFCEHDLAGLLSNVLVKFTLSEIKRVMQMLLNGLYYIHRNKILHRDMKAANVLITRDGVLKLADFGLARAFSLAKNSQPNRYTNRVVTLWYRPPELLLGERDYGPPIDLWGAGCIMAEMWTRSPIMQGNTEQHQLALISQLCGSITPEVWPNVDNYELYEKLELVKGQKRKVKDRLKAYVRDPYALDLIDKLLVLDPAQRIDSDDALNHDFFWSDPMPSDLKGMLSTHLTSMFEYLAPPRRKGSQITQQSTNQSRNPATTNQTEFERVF
# T4 sequence (O60563 whole entry partner): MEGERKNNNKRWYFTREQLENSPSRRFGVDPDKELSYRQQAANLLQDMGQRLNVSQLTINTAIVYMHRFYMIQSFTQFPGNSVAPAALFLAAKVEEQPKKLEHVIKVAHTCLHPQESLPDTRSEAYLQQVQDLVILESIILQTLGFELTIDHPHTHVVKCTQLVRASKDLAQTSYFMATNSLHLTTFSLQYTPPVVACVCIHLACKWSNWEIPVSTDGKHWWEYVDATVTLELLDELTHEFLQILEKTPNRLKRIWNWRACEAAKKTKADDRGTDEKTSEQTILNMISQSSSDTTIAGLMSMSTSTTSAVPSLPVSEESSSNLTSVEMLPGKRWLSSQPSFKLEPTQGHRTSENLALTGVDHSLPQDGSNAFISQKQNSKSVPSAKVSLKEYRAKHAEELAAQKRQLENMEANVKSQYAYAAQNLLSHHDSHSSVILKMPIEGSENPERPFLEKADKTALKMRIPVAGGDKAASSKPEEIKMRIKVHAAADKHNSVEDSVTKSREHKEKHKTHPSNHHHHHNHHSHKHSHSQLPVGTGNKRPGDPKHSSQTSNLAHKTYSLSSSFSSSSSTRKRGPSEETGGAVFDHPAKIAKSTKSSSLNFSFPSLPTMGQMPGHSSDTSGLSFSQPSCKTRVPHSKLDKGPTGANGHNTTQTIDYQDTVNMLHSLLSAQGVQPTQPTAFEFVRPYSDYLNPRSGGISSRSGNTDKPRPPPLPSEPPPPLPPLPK
# Outline: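 Human CDK9/CyclinT1 (6 nM final) was preincubated 10 min with compound (12-point 1:3 series from 5 μM), then reacted 120 min at RT with PDKtide (40 μM final) and ATP (10 μM final). ADP was read by ADP-Glo luminescence; IC50 from variable-slope sigmoidal fit.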
SMILES,pIC50 (CDK2/cyclin E1),pIC50 (CDK2/cyclin A),pIC50 (CDK2/cyclin A1 [1]),pIC50 (CDK2/cyclin A1 [2]),pIC50 (CDK9/CyclinT1)
"Fc1cccc(F)c1-c1nc(N[C@H]2CC[C@H](N3CCCCC3)CC2)n2ncc(Cl)c2n1 [Example #110, 8-chloro-2-(2,6-difluorophenyl)-N-((1r,4r)-4-(piperidin-1-yl)cyclohexyl)pyrazolo[1,5-a][1,3,5]triazin-4-amine]",> 6.70,> 6.00,> 6.70,> 6.70,> 7.70
"COCCNC1CCC(Nc2nc(-c3c(F)cccc3F)nc3c(Cl)cnn23)CC1 (centres unmarked) [Example #124, (1r,4r)-N1-(8-chloro-2-(2,6-difluorophenyl)pyrazolo[1,5-a][1,3,5]triazin-4-yl)-N4-(2-methoxyethyl)cyclohexane-1,4-diamine]",> 6.70,> 6.00,> 6.70,> 6.00,> 6.70
"FCCN[C@H]1CC[C@H](Nc2nc(-c3c(F)cccc3F)nc3c(Cl)cnn23)CC1 [Example #126, (1r,4r)-N1-(8-chloro-2-(2,6-difluorophenyl)pyrazolo[1,5-a][1,3,5]triazin-4-yl)-N4-(2-fluoroethyl)cyclohexane-1,4-diamine]",> 6.70,> 6.70,> 6.70,> 6.70,> 7.70
"FCCCN[C@H]1CC[C@H](Nc2nc(-c3c(F)cccc3F)nc3c(Cl)cnn23)CC1 [Example #128, (1r,4r)-N1-(8-chloro-2-(2,6-difluorophenyl)pyrazolo[1,5-a][1,3,5]triazin-4-yl)-N4-(3-fluoropropyl)cyclohexane-1,4-diamine]",> 6.70,> 6.00,> 6.70,> 6.70,> 7.70
